Assay results reported in publication PMC6657668, “Porcine Beta-Defensin 2 Provides Protection Against Bacterial Infection by a Direct Bactericidal Activity and Alleviates Inflammation via Interference With the TLR4/NF-κB Pathway” (Frontiers in Immunology, 2019).
Where a SMILES comes first, the peptide text is derived from it.

Experiments:
S. Typhimurium [1] = assay: Serum cytokine levels of mice infected with S. Typhimurium (ELISA); assay type: in vivo, Salmonella Typhimurium 14028 (in mice); conditions: 24 h, n = 6
Description: At 24 h post-infection, blood samples of the mice were collected to detect cytokines IL-6 (# EMC004.96), tumor necrosis factor-α (TNF-α, # EMC102a.96), IL-1β (# EMC001b.96), and IL-12 (# EMC006.96) using ELISA kits (Neo-bioscience Technology Company, Shenzhen China). For cytokine detections in the WT mice with or without treatment of PBD-2, the blood samples were collected from the WT mice orally administered with solely 2.5 × 10^8 CFU of S. Typhimurium (n = 6) or together with PBD-2 at 5 mg/kg body weight (n = 6).

[2] = system: LPS-induced production of cytokines; assay: Serum cytokine levels of mice injected with LPS (ELISA); assay type: in vivo, mouse; conditions: 1 h, n = 6
Description: Six TG mice and six WT mice were separately injected with LPS (16 mg/kg body weight) intraperitoneally. The same number of TG mice and WT mice was injected with 100 μl of sterile PBS as a negative control. The sera from the mice in each group were collected 1 h after the injection to detect cytokines by ELISA.
The WT mice were injected with LPS alone or LPS with PBD-2 (0.5 mg/kg body weight) intraperitoneally (n = 6 each group) to detect the effect of synthetic PBD-2 on inflammation induced by LPS. The sera from the mice in each group were collected 1 h after the injection to detect the cytokines by ELISA.

ERK = assay: Western blot of ERK and p-ERK in RAW 264.7 cells; assay type: cell-based, mouse; conditions: LPS 30 min with various concentrations of PBD-2 (Figure S4)
Description: […] […] Proteins were firstly analyzed with SDS-PAGE and then electro-transferred onto a PVDF (#ISEQ00010, Biosharp®, Beijing, China) membrane. The PVDF membrane was blocked with 1/100 bovine serum albumin (BSA, #V900933-100G, VETEC, Sigma-Aldrich®, St. Louis, MO, USA) at 10 μg/ml at 37°C for 2 h, washed with PBST five times, incubated with the antisera against p-p65 (# 3033), p65 (# 4764), p-ERK (# 4370), ERK (# 4695), p-p38 (# 4511), p38 (# 8690), p-JNK (# 4668), JNK (# 9258) (Cell Signaling Technology®, Danvers, MA, USA), and β-actin (# AA128, Beyotime®, Shanghai, China) at 2 μg/ml at 37°C for 2 h and washed five times again. The PVDF membrane was subsequently incubated with 1 μg/ml secondary antibody, namely, goat anti-rabbit IgG (# 7074S, Cell Signaling Technology®, Danvers, MA, USA), at 37°C for 2 h and washed five times. Lastly, immune-reactive bands were detected using an ECF Western blot system (Tanon 5200 Multi, Shanghai, China) and quantified using AlphaImager 2200 analysis software.
Supplementary file Image_4.TIF: Figure S4 Effects of PBD-2 on ERK, p38, and JNK signaling pathways. Cells were treated with LPS for 30 min with or without various concentrations of PBD-2. The expression levels of ERK, p-ERK, p38, p-p38, JNK, p-JNK, and β-actin were examined by Western blot (A). The signal intensity of each band was quantified (B–D). Click here for additional data file.

NF-κB = assay: mRNA level of NF-κB in RAW 264.7 cells (RT-PCR); assay type: cell-based, mouse; conditions: LPS 1 μg/ml with PBD-2 10 μg/mL, 4 h; n = 6
Description: The cDNA of the RAW 264.7 cells treated with LPS (1 μg/ml) alone or together with PBD-2 (10 μg/mL) for 4 h (n = 6 each group) was used as a template by using the primers NF-κB-01 ([…]) and NF-κB-02 ([…]) and the primers GAPDH-01 and GAPDH-02 for the housekeeping gene GAPDH to detect the expression level of NF-κB. The relative expression level of NF-κB is shown as 2^−ΔCt (mean ± SEM), where ΔCt = Ct NF−κB−CtGAPDH. The protocol consisted of 40 replication cycles. The Ct values above 34 cycles were considered non-detectable.

TLR4 = assay: Interaction of PBD-2 with TLR4 in RAW 264.7 cells, coimmunoprecipitation; assay type: binding, mouse; conditions: PBD-2 1, 10, 30, and 50 μg/ml, 16 h, captured with PBD-2 antisera
Description: A Co-IP assay was conducted using a Co-IP kit (# abs955, Absin®, Shanghai, China) in accordance with the manufacturer's instructions. In brief, RAW 264.7 cells were cultured in dishes of 10 cm in diameter. The cells (1 × 10^7) were treated with different concentrations of PBD-2 (1, 10, 30, and 50 μg/ml) for 16 h and lysed using a lysis buffer that contained protease inhibitors […]. The soluble faction of the cell lysate was collected after centrifugation at 14,000 × g at 4°C for 10 min. Afterwards, 2 μl of PBD-2 antisera (with titer 1:500,000) or 2 μl of mouse IgG antisera (# sc-2025, Santa Cruz®, CA, USA) as control were incubated with 200 μg of the cell lysate at 4°C for 12 h. Protein A/G beads (5 μl) were added and incubated at 4°C for 12 h. The precipitates with the immune complexes were collected by centrifugation at 12,000 × g at 4°C for 1 min. The beads were washed with a wash buffer. TLR4 in the precipitates was detected with Western blot by using an antibody against TLR4 (# sc-293072, Santa Cruz®, Santa Cruz, CA, USA).

S. Typhimurium [3] = assay: Bactericidal activity assay (colony counting); conditions: 5000 CFU, 1 h, 37°C, n = 6
Description: S. Typhimurium cells were cultured to mid-log phase (OD600nm = 0.7) in TSB. The cultures were centrifuged for 10 min at 1,000 × g, and the cell pellets were diluted in assay medium (10 mM phosphate, pH 7.0, with 1/100 TSB). The antimicrobial activities of PBD-2, TG serum and tissue homogenates were determined by colony counting assay. The mice serum, caecum, colon, or duodenum homogenates were heat inactivated at 56°C for 20 min to exclude the possible effect of complement in tissues. As a control, PBD-2 solution in PBS (50 μg/ml) was also heat-treated at 56°C for 20 min. Afterwards, 5000 CFUs of S. Typhimurium were mixed with 100 μl of each sample in a centrifuge tube at 37°C for 1 h. After incubation, 10 serial dilutions from 10 to 1,000-fold in TSB were conducted, and the diluted bacterial cultures were transferred onto TSA plates and incubated at 37°C for 24 h. The numbers of bacterial CFUs were recorded.

S. Typhimurium [4] = assay: Bacterial load in caecum of mice infected with S. Typhimurium; conditions: PBD-2 expressed in TG mice; oral 2.5 × 10^8 CFU; 24 h post-infection; n = 6; vs WT
Description: Four infection experiments were conducted to determine the resistance to S. Typhimurium of the TG mice. For body weight measurements, 7 WT and 7 TG mice were orally administered with 2.5 × 10^8 CFU of S. Typhimurium, and the body weight of each mouse was measured on days 1, 2, 3, 4, and 5 after infection. For the detection of the tissue weight ratios, bacterial loads in tissues and tissue lesions after S. Typhimurium infection, 9 WT and 8 TG mice were orally administered with 2.5 × 10^8 CFU of S. Typhimurium. The spleen, caecum and body weights of the mice were weighed at 24 h post-infection. The bacterial loads in the tissues were also measured ([26]). The spleen and caecum were weighed and homogenized in cold PBS at a ratio of 4 ml per gram of tissue and coated plates. The bacterial numbers in the homogenates were counted by serially diluting the homogenates and spreading on plates. Caeca were harvested for histopathological analysis by using the methods described above. The intestinal damage, including epithelial damage, submucosal oedema, and neutrophil aggregation, was observed.

[5] = PBD-2 expressed in TG mice, oral 2.5 × 10^8 CFU S. Typhimurium, vs WT
[6] = synthetic PBD-2 5 mg/kg orally with 2.5 × 10^8 CFU S. Typhimurium, WT mice, vs infection alone
[7] = PBD-2 expressed in TG mice, LPS 16 mg/kg i.p., vs WT
[8] = synthetic PBD-2 0.5 mg/kg i.p. with LPS 16 mg/kg, WT mice, vs LPS alone

## CC[C@H](C)[C@H](NC(=O)[C@@H]1CSSC[C@@H]2NC(=O)[C@@H]3CCCN3C(=O)[C@H](CO)NC(=O)[C@H](Cc3ccccc3)NC(=O)[C@H](CC(N)=O)NC(=O)[C@@H]3CSSC[C@H](NC(=O)[C@H]([C@@H](C)O)NC(=O)CNC(=O)[C@H](CCC(=O)O)NC(=O)[C@H]([C@@H](C)CC)NC(=O)[C@H](CCCNC(=N)N)NC(=O)[C@H](CC(N)=O)NC(=O)[C@H](Cc4ccccc4)NC(=O)[C@H](CC(C)C)NC(=O)[C@@H]4CCCN4C2=O)C(=O)N[C@@H](Cc2ccc(O)cc2)C(=O)N[C@@H](CO)C(=O)NCC(=O)N[C@@H](CCCCN)C(=O)N[C@@H](C)C(=O)N[C@@H](CCCCN)C(=O)N[C@@H](CSSC[C@H](NC(=O)[C@@H](NC(=O)[C@H](Cc2ccc(O)cc2)NC(=O)[C@H](Cc2c[nH]cn2)NC(=O)[C@@H](N)CC(=O)O)[C@@H](C)CC)C(=O)N[C@@H](C)C(=O)N[C@@H](CCCCN)C(=O)N[C@@H](CCCCN)C(=O)NCC(=O)NCC(=O)N[C@@H]([C@@H](C)O)C(=O)N3)C(=O)N1)C(=O)N[C@@H](CCCNC(=N)N)C(=O)O [PBD-2, Porcine beta-defensin 2] (HELM PEPTIDE1{D.H.Y.I.C.A.K.K.G.G.T.C.N.F.S.P.C.P.L.F.N.R.I.E.G.T.C.Y.S.G.K.A.K.C.C.I.R}$PEPTIDE1,PEPTIDE1,5:R3-34:R3|PEPTIDE1,PEPTIDE1,12:R3-27:R3|PEPTIDE1,PEPTIDE1,17:R3-35:R3$$$V2.0; N-terminus and C-terminus assumed)
S. Typhimurium [1]; [5]
  level of IL-1β in serum: significantly lower than those of the WT mice (p < 0.05)
  level of IL-6 in serum: significantly lower than those of the WT mice (p < 0.05)
  level of IL-12 in serum: significantly lower than those of the WT mice (p < 0.05)
  level of TNF-α in serum: significantly lower than those of the WT mice (p < 0.05)
S. Typhimurium [1]; [6]
  level of IL-1β in serum: significantly lower levels of proinflammatory cytokines than the mice infected with S. Typhimurium alone did (p < 0.05)
  level of IL-6 in serum: significantly lower levels of proinflammatory cytokines than the mice infected with S. Typhimurium alone did (p < 0.05)
  level of IL-12 in serum: significantly lower levels of proinflammatory cytokines than the mice infected with S. Typhimurium alone did (p < 0.05)
  level of TNF-α in serum: significantly lower levels of proinflammatory cytokines than the mice infected with S. Typhimurium alone did (p < 0.05)
[2]; [7]
  LPS-induced IL-1β in serum: significantly lower in the TG mice than in the WT mice (p < 0.05)
  LPS-induced IL-6 in serum: significantly lower in the TG mice than in the WT mice (p < 0.05)
  LPS-induced IL-12 in serum: significantly lower in the TG mice than in the WT mice (p < 0.05)
  LPS-induced TNF-α in serum: significantly lower in the TG mice than in the WT mice (p < 0.05)
[2]; [8]
  LPS-induced IL-1β in serum: significantly lower levels of secreted TNF-α, IL-6, IL-1β, and IL-12 than those injected with LPS alone (p < 0.05)
  LPS-induced IL-6 in serum: significantly lower levels of secreted TNF-α, IL-6, IL-1β, and IL-12 than those injected with LPS alone (p < 0.05)
  LPS-induced IL-12 in serum: significantly lower levels of secreted TNF-α, IL-6, IL-1β, and IL-12 than those injected with LPS alone (p < 0.05)
  LPS-induced TNF-α in serum: significantly lower levels of secreted TNF-α, IL-6, IL-1β, and IL-12 than those injected with LPS alone (p < 0.05)
ERK
  LPS-induced phosphorylation of ERK: did not affect the LPS-induced phosphorylation of ERK, p38, and JNK
NF-κB
  mRNA levels of NF-κB after LPS induction: reduce the mRNA levels of NF-κB after LPS induction (p < 0.01)
TLR4
  coimmunoprecipitation of TLR4 with PBD-2: could react with the antibody against TLR4
S. Typhimurium [3]; heat-inactivated (56°C, 20 min) caecum homogenate of PBD-2 TG mice vs WT
  number of survived bacteria, caecum homogenate: the number of the survived bacteria in the serum and tissue homogenates of the WT mice was significantly higher than that in the serum and tissue homogenates of the TG mice (p < 0.05)
S. Typhimurium [3]; heat-inactivated (56°C, 20 min) colon homogenate of PBD-2 TG mice vs WT
  number of survived bacteria, colon homogenate: the number of the survived bacteria in the serum and tissue homogenates of the WT mice was significantly higher than that in the serum and tissue homogenates of the TG mice (p < 0.05)
S. Typhimurium [3]; heat-inactivated (56°C, 20 min) serum of PBD-2 TG mice vs WT
  number of survived bacteria, serum: the number of the survived bacteria in the serum and tissue homogenates of the WT mice was significantly higher than that in the serum and tissue homogenates of the TG mice (p < 0.05)
S. Typhimurium [4]
  bacterial load in the caecum: smaller amount of bacterial load in the caecum compared with the WT mice (p < 0.05)
